Patent US20240325572A1, “N-HETEROCYCLYL SUBSTITUTED 2-CYANO-3-(NAPHTHALEN-2-YL)ACRYLAMIDE DERIVATIVES AS FLUOROPHORS FOR DETECTION OF AMYLOID AND AMYLOID-LIKE PROTEINS FOR DIAGNOSIS OF NEURODEGENERATIVE DISORDERS” (Amydis, Inc., priority 2021, published 2024)

Target: T1, aggregated amyloid beta (Aβ1-42) (Homo sapiens, UniProt P05067)
T1 construct: Aβ1-42 peptide was aggregated in vitro using the following procedure
Assay: In vitro binding studies of compounds with amyloid beta: fluorescent emission spectra with and without aggregated Aβ
Conditions: fold increase at maximum emission (compound+Aβ/compound), 4 μM compound, 5 μM aggregated Aβ in 1×PBS; for Fold Increase @ 450 nm: excitation 450 nm; for Fold Increase @ 488 nm: excitation 488 nm
Protocol: The fluorescent properties and emission spectra of compounds described herein with aggregated amyloid beta (Aβ1-42) were characterized as described below.
Emission spectra for compounds described herein were collected after incubation of the compounds with and without aggregated Aβ at specific excitation wavelengths (450 nm and 488 nm) employed in standard ocular imaging equipment.
Aβ1-42 peptide was aggregated in vitro using the following procedure. Aβ42 (HFIP) was removed from the freezer and allowed to warm to room temperature, then 1 mg of Aβ42 was dissolved in 215 μL of ddH2O for about 10-20 mins at room temperature. To the resulting solution, 2 mL of ddH2O was added to provide a 100 μM stock solution. A 100 μL aliquot was sampled and frozen (non-aggregated sample). The tubes were placed in a thermoshaker at 350 rpm for 3 days. Care was taken to avoid generating bubbles. Aβ aggregation was confirmed by measuring binding to Thioflavin T (ThT). Aggregated Aβ1-42 peptide was then portioned into 150 μL aliquots and stored at −80° C.
The fluorescent emission spectra were measured as follows to determine binding of Aβ to test compounds described herein. The Shimadzu fluorimeter was turned on and allowed to warm up for ˜60 minutes. The test compounds were then removed from the −20° C. freezer and were allowed to warm to room temperature. The 100 μM aggregated Aβ solution was then removed from the −80° C. freezer and also allowed to warm to room temperature. 250 μM solutions of each test compound in DMSO were then prepared. These were then used to prepare 4 μM solutions of each test compound, with and without 5 μM aggregated Aβ in 1×PBS, in triplicates. Using a cuvette, the fluorescent emission spectra were measured for each test compound+Aβ solution, employing a DMSO/PBS solution as a blank. Each sample was tested at an excitation of 450 nm and 488 nm. Fluorescent emission spectra were then collected for each 4 μM test compound solution alone. The resulting data were used to plot intensity vs. wavelength for each emission scan.

T1 sequence (P05067 672-713 limits assumed): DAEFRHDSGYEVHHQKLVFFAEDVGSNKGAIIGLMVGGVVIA

| Fold Increase @ 450 nm | Fold Increase @ 488 nm | Compound |
| --- | --- | --- |
| 15.28 | 18.53 | N#C/C(=C\c1ccc2cc(N3CCCCC3)ccc2c1)C(=O)NCC(O)CO (centres unmarked) [Compound 4, (E)-2-cyano-N-(2,3-dihydroxypropyl)-3-(6-(piperidin-1-yl)naphthalen-2-yl)acrylamide, reference compound] |
| 10.16 | 9.11 | N#C/C(=C\c1ccc2cc(N3CCCCC3)ccc2c1)C(=O)CCCOCCOCCO [Compound 9, (E)-6-(2-(2-hydroxyethoxy)ethoxy)-3-oxo-2-((6-(piperidin-1-yl)naphthalen-2-yl)methylene)hexanenitrile] |
| 7.12 | 17.18 | N#C/C(=C\c1ccc2ccccc2c1N1CCCCC1)C(=O)NCC(O)CO (centres unmarked) [Compound 6, (E)-2-cyano-N-(2,3-dihydroxypropyl)-3-(1-(piperidin-1-yl)naphthalen-2-yl)acrylamide] |
| 4.31 | 2.84 | N#C/C(=C\c1ccc2ccccc2c1N1CCC1)C(=O)NCC(O)CO (centres unmarked) [Compound 7, (E)-3-(1-(azetidin-1-yl)naphthalen-2-yl)-2-cyano-N-(2,3-dihydroxypropyl)acrylamide] |
| 21.98 | 19.13 | N#C/C(=C\c1ccc2cc(N3CCC3)ccc2c1)C(=O)NCC(O)CO (centres unmarked) [Compound 10, (E)-3-(6-(azetidin-1-yl)naphthalen-2-yl)-2-cyano-N-(2,3-dihydroxypropyl)acrylamide] |
| 9.48 | 19.60 | N#C/C(=C\c1ccc2cc(N3CCCCC3)ccc2c1)C(=O)CC[C@H](O)CO [Compound 8, (S,E)-6,7-dihydroxy-3-oxo-2-((6-(piperidin-1-yl)naphthalen-2-yl)methylene)heptanenitrile] |
| 18.18 | 22.81 | N#C/C(=C\c1ccc2cc(N3CCCC3)ccc2c1)C(=O)NCC(O)CO (centres unmarked) [Compound 5, (E)-2-cyano-N-(2,3-dihydroxypropyl)-3-(6-(pyrrolidin-1-yl)naphthalen-2-yl)acrylamide] |
